What is called logP is a log measure of how a compound divides between an organic and an aqueous phase. Read a low logP as a more hydrophilic compound.

The structures appear in SMILES notation.

As to `CC1CCC2CC(=O)N(Cc3ccc(Cl)cc3)C3OC4(C)CCC1C23OO4` (stereo not given), the logP was 4.32.

In turn, `CC(C)CN1C(=O)CC2CCC(C)C3CCC4(C)OOC23C1O4` (stereo not given) came in with a logP of 3.66.

Take `CC(C)CCN1C(=O)CC2CCC(C)C3CCC4(C)OOC23C1O4` (stereo not given): the lipophilicity (logP) worked out at 4.16.

The compound `CCCN1C(=O)CC2CCC(C)C3CCC4(C)OOC23C1O4` (stereo not given) came in with a logP of 3.41.

For `CC1CCC2CC(=O)N(CCc3ccccc3)C3OC4(C)CCC1C23OO4` (stereo not given), the logP is 3.94.

Compound `CC1CCC2CC(=O)N(CC(=O)O)C3OC4(C)CCC1C23OO4` (stereo not given) yielded a logP of 1.75.

With `C[C@@H]1CC[C@H]2[C@@H](C)C(=O)O[C@@H]3O[C@@]4(C)CC[C@@H]1[C@]32OO4` (relative stereo), the log partition coefficient (logP) is 2.9.

Turning to `C[C@@H]1CC[C@H]2[C@@H](C)CO[C@@H]3O[C@]4(C)CC[C@@H]1[C@]32OO4`, the logP worked out at 3.16.

As to `CCCCCN1C(=O)CC2CCC(C)C3CCC4(C)OOC23C1O4` (stereo not given), the logP was found to be 4.24.

For the compound `CC1CCC2CC(=O)N(CCCc3ccccc3)C3OC4(C)CCC1C23OO4` (stereo not given), the logP stood at 4.39.

The values above are taken from the SangsterLogP compilation.
